# Laboratory results: patent publication US12187706B2, “NLRP3 modulators” (INNATE TUMOR IMMUNITY, INC., priority 2019, dated 2025)
# Biological target: T1, human TLR7 (Homo sapiens, UniProt Q9NYK1)
# T1 construct: host or cells: human HEK-Blue cells with NF-kB/AP1-inducible SEAP reporter
# T1 sequence (Q9NYK1 27-1049): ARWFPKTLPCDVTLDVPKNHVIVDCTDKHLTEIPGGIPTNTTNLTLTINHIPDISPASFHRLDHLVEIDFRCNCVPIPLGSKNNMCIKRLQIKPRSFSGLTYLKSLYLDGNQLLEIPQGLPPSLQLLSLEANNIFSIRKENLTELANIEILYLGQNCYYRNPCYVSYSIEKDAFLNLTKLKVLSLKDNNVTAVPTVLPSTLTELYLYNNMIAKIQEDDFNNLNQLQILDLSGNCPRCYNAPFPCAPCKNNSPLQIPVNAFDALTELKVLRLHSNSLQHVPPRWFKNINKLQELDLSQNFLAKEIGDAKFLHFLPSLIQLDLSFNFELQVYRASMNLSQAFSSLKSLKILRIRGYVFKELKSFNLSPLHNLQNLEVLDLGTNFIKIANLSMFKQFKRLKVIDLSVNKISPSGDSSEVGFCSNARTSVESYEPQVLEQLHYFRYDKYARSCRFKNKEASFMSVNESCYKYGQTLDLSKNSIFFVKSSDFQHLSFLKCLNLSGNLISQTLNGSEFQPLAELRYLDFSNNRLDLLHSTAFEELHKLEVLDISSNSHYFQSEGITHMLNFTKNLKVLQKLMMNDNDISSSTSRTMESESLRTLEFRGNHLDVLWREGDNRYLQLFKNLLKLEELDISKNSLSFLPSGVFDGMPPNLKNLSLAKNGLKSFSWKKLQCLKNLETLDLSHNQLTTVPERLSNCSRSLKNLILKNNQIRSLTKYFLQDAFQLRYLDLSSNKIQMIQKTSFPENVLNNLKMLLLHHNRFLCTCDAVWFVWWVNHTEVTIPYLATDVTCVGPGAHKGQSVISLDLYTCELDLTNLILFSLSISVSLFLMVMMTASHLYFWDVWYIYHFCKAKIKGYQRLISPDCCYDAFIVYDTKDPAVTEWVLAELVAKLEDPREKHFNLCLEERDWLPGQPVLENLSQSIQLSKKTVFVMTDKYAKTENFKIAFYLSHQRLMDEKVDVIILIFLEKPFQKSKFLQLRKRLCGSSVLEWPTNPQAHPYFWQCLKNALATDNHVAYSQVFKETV
# Assay: In vitro human TLR7 reporter assay (HEK-Blue, NF-kB/AP1-inducible SEAP)
# Format: cell-based
# Settings: at 50 μM
# Experimental: In Vitro Human TLR7 and TLR8 Binding Reporter Assays Logarithmically-growing human HEK-Blue cells co-expressing a TLR7 or TLR8 gene and a NF-kB/AP1-inducible SEAP (secreted embryonic alkaline phosphatase; […] Cellular SEAP production is measured using an Envision plate reader instrument thirty minutes after adding freshly-made Quanti-Blue reagent (prepared by following manufacturer instructions; Invivogen, San Diego, CA) to the HEK-Blue TLR Nf-kB-SEAP cell reactions. All EC50 values (half-maximal effective concentration) are determined using proprietary data analysis software.
structure (smiles),measurement,value
"Nc1nc(OCCO)c2ccc(-c3ccn[nH]3)cc2n1 [Example 4, 2-((2-amino-7-(1H-pyrazol-3-yl)quinazolin-4-yl)oxy)ethan-1-ol]",TLR7 agonist activity,< 50%
